pIC50: −log10 of the molar value.

The target of one assay is T1, SARM1 (Homo sapiens, UniProt Q6SZW1).
T1 construct: AviTag […]; made in house; host or cells: NRK1-HEK293T cells, transiently transfected; the clarified sonicated lysate was used without purification
T1 sequence (Q6SZW1 with tags, fused parts or gaps): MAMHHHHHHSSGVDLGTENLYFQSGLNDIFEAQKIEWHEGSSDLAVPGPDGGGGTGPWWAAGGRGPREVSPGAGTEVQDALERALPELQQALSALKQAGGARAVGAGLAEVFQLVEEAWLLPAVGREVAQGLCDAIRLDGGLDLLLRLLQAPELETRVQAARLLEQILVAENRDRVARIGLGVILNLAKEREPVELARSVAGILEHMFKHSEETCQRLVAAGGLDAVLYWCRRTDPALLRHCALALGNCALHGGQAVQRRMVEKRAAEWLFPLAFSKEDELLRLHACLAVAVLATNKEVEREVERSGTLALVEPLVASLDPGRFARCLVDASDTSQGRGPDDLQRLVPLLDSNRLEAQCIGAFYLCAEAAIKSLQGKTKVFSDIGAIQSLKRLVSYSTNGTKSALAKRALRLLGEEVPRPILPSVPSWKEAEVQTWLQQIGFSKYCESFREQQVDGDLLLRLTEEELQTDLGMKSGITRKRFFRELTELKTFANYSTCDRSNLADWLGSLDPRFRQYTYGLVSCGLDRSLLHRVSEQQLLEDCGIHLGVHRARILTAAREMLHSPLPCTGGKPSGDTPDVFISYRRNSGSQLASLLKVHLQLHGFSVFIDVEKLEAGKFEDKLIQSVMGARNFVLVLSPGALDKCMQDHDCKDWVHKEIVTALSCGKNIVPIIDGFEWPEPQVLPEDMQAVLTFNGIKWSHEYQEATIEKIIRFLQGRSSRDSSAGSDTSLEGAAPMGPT
As to the kind of experiment: ARM-SAM-TIR SARM1 IC50 assay (NADase activity, NAD+ cleavage). Format: biochemical.
Conditions: not given
The source says:
This Example describes an assay of ARM-SAM-TTR NADase activity and use of this assay to measure the efficacy of compounds of Formula I or Formula II to block SARM1 mediated NAD+ cleavage. This assay is optimized in such a way as to characterize the efficacy of the compounds in Formula I or Formula II to inhibit SARM1 activity and to calculate an IC50 value for each compound. This assay makes use of full length SARI, which encompasses the ARM, SAM and TTR domains.
Preparation of ARM-SAM-TIR Lysate (STL)
NRK1-HEK293T cells were seeded onto 150 cm^2 plates at 20×10^6 cells per plate. The next day, the cells were transfected with 15 μg ARM-SAM-TIR expression plasmid, SEQ ID NO: 1.
The cultures were supplemented with 1 mM NR at time of transfection to minimize toxicity from ARM-SAM-TIR overexpression. Forty-eight hours after transfection, cells were harvested, pelleted by centrifugation at 1,000 rpm (Sorvall ST 16R centrifuge, Thermo Fisher), and washed once with cold PBS (0.01 M phosphate buffered saline NaCl 0.138 M; KCl 0.0027 M; pH 7.4). The cells were resuspended in PBS with protease inhibitors (cOmplete™ protease inhibitor cocktail, Roche product #11873580001) and cell lysates were prepared by sonication (Branson Sonifer 450, output=3, 20 episodes of stroke). The lysates were centrifuged (12,000×g for 10 min at 4° C.) to remove cell debris and the supernatants (containing ARM-SAM-TIR protein) were stored at −80° C. for later use in the in vitro ARM-SAM-TIR NADase assay (see below). Protein concentration was determined by the Bicinchoninic (BCA) method and used to normalize lysate concentrations.
ARM-SAM-TIR IC50 Assay of Formula I or Formula II Compounds.
The enzymatic assay was performed in a 384-well polypropylene plate in Dulbecco's PBS buffer in a final assay volume of 20 μL. ARM-SAM-TIR lysate with a final concentration of 5 μg/mL was pre-incubated with the respective compound at 1% DMSO final assay concentration over 2 h at room temperature. The reaction was initiated by addition of 5 μM final assay concentration of NAD+ as substrate. After a 2 hr room temperature incubation, the reaction was terminated with 40 μL of stop solution of 7.5% trichloroactetic acid in acetonitrile. The NAD+ and ADPR concentrations were analyzed by a RapidFire High Throughput Mass Spectrometry System (Agilent Technologies, Santa Clara, CA) using an API4000 triple quadrupole mass spectrometer (AB Sciex Framingham, MA).
Broadly, the pIC50 is the IC50 on a negative log10 scale, so that one unit is a factor of ten. For `N#Cc1cc(N2C3CNCC2C3)nc2ccc(Cl)cc12` [Example 72], the negative logarithm of the IC50 (pIC50) was above 5.30. Still for that read-out and setting: in the case of `N#Cc1cc(N2CC3CC(C2)N3)nc2ccc(Cl)cc12` [Example 73] it was above 5.30.

The assay is the same for the next values; noted with them: ARM-SAM-TIR lysate 5 μg/mL from NRK1-HEK293T cells; 2 h pre-incubation with compound, 5 μM NAD+, 2 hr room temperature; NAD+ and ADPR by RapidFire mass spectrometry; read-out: SARM1 IC50.
`Cn1c(CNc2cc(C#N)c3cc(Cl)ccc3n2)nc2cccnc21` [Example 32]: the pIC50 was below 4.52.

Regarding `CC(O)CNc1cc(C#N)c2cc(Cl)ccc2n1` (stereo not shown) [Example 38], the pIC50 was 4.52 to 4.82. Same read-out and setting: in the case of `N#Cc1cc(N2CCC(NCc3ccccc3)CC2)nc2ccc(Br)cc12` [Example 113] it was above 5.30; in that of `CN(CC1CC1)C(=O)C1CCN(c2cc(C#N)c3cc(Br)ccc3n2)CC1` [Example 124], above 5.30; in that of `COC1CCN(c2cc(C#N)c3cc(Cl)ccc3n2)CC1` [Example 54], above 5.30. Take `N#Cc1cc(N2CCCCC2)nc2ccc(F)cc12` [Example 24]: the pIC50 was above 5.30. With `CN(Cc1ccccc1)C(=O)[C@H]1CCCN(c2cc(C#N)c3cc(Br)ccc3n2)C1` [Example 116], the pIC50 is above 5.30. Take `CN(C)C(=O)NCCNc1cc(C#N)c2cc(Cl)ccc2n1` [Example 41]: the pIC50 is 4.52 to 4.82.

Regarding `Cc1cc(N2CCC(NCCO)CC2)nc2ccc(Cl)cc12` [Example 9], the pIC50 is below 4.52.

As to `N#Cc1cc(N2CCCC2)nc2ccc(Cl)cc12` [Example 10], the pIC50 is above 5.30.

Take `N#Cc1cc(N2CCCC(n3cccn3)C2)nc2ccc(Br)cc12` (stereo not shown) [Example 153]: the pIC50 was above 5.30. Turning to `CN(C)c1cc(C#N)c2ccc(Cl)cc2n1` [Example 27], the pIC50 is above 5.30. The same measure, in the same setting: in the case of `CO[C@H]1CCN(c2cc(C#N)c3cc(Cl)ccc3n2)C1` [Example 49] it was above 5.30; in that of `CCN1CCN(c2cc(C#N)c3cc(Cl)ccc3n2)CC1` [Example 53], below 4.52; in that of `N#Cc1cc(N2CCCCC2)nc2cc(F)c(Cl)cc12` [Example 89], above 5.30. On to `N#Cc1cc(N2CCC[C@@H](N)C2)nc2ccc(Cl)cc12` [Example 85], for which the pIC50 was 4.82 to 5.30.

As to `C[C@H]1CCCCN1c1cc(C#N)c2cc(Cl)ccc2n1` [Example 83], the pIC50 was above 5.30. Regarding `N#Cc1cc(-c2cccnc2)nc2ccc(Cl)cc12` [Example 87], the pIC50 was 4.52 to 4.82.

On to `C[C@@]1(NS(C)(=O)=O)CCCN(c2cc(C#N)c3cc(Br)ccc3n2)C1` [Example 122], for which the pIC50 was above 5.30.

With `N#Cc1cc(N2CCC[C@H](NC(=O)N3CCOCC3)C2)nc2ccc(Br)cc12` [Example 137], the negative logarithm of the IC50 (pIC50) is above 5.30. Regarding `CNC(=O)[C@H]1CCCN(c2cc(C#N)c3cc(Cl)ccc3n2)C1` [Example 79], the negative-log IC50 (pIC50) is above 5.30. The same measure, in the same setting: for `C[C@@H]1CCC[C@H](C)N1c1cc(C#N)c2cc(C(C)(C)O)ccc2n1` [Example 148] the value was above 5.30; for `CNC(=O)C1CCN(c2cc(C#N)c3cc(Cl)ccc3n2)CC1` [Example 57], above 5.30; for `N#Cc1cc(NC2CCN(Cc3cccnc3)CC2)nc2ccc(Cl)cc12` [Example 44], above 5.30. Take `C#CCCC1(CCNC2CCN(c3cc(C#N)c4cc(Cl)ccc4n3)CC2)N=N1` [Example 88]: the pIC50 is above 5.30.

In the case of `N#Cc1cc(N2CCC[C@H](NCC3CC3)C2)nc2ccc(Br)cc12` [Example 108], the pIC50 was above 5.30. As to `N#Cc1cc(N2CC(CO)C2)nc2ccc(Cl)cc12` [Example 34], the pIC50 is 4.82 to 5.30. On to `N#Cc1cc(N2CCC(N)CC2)nc2cc(Cl)ccc12` [Example 64], for which the pIC50 is above 5.30. As for `Cc1nccnc1C(=O)N[C@H]1CCCN(c2cc(C#N)c3cc(Br)ccc3n2)C1` [Example 134], the pIC50 is above 5.30. For `COCCN(C)C(=O)[C@H]1CCCN(c2cc(C#N)c3cc(Br)ccc3n2)C1` [Example 112], the pIC50 was above 5.30.

For the compound `C[C@@H]1CCC[C@H](C)N1c1cc(C#N)c2cc(C#N)ccc2n1` [Example 140], the pIC50 is above 5.30. Still for that read-out and setting: in the case of `Cn1cc(C(=O)N[C@H]2CCCN(c3cc(C#N)c4cc(Br)ccc4n3)C2)cn1` [Example 128] it was above 5.30; in that of `N#Cc1cc(NCC(O)c2ccco2)nc2ccc(Cl)cc12` (stereo not shown) [Example 30], 4.82 to 5.30. As to `Cn1cc(-c2cc(C#N)c3cc(Cl)ccc3n2)cn1` [Example 86], the pIC50 was 4.82 to 5.30. In the case of `N#Cc1cc(N2CCC(NCCO)CC2)nc2ccccc12` [Example 8], the pIC50 is below 4.52. Take `CN(C)c1cc(C#N)c2cc(Cl)ccc2n1` [Example 5]: the pIC50 is above 5.30.

For the compound `CNC(=O)C(CO)Nc1cc(C#N)c2cc(Cl)ccc2n1` (stereo not shown) [Example 39], the pIC50 is below 4.52. For `N#Cc1cc(N2CCCC2)nc2cc(F)c(Cl)cc12` [Example 71], the negative-log IC50 (pIC50) was above 5.30. Still for that read-out and setting: for `N#Cc1cc(N2CCC[C@@H](C(=O)NCc3cnccn3)C2)nc2ccc(Br)cc12` [Example 141] the value was above 5.30; for `N#Cc1cc(N2CCC(N)CC2)nc2ccc(Br)cc12` [Example 20], above 5.30. With `N#Cc1cc(N2CCCC(CCC(N)=O)C2)nc2ccc(Cl)cc12` (stereo not shown) [Example 40], the pIC50 is above 5.30. On to `N#Cc1cc(N2CCOCC2C2CC2)nc2ccc(Cl)cc12` (stereo not shown) [Example 131], for which the pIC50 was above 5.30. Take `N#Cc1cc(N2CCC[C@H](NCc3ccccc3)C2)nc2ccc(Br)cc12` [Example 107]: the pIC50 is above 5.30. As for `CO[C@H]1CCCN(c2cc(C#N)c3cc(Cl)ccc3n2)C1` [Example 61], the pIC50 is above 5.30. As to `N#Cc1cc(N2CC[C@H](N)C(F)C2)nc2ccc(Br)cc12` (stereo partly shown) [Example 99], the pIC50 was above 5.30. Turning to `Cc1ccc2nc(N3CCC(N)CC3)cc(C#N)c2c1` [Example 17], the pIC50 is 4.82 to 5.30. Regarding `N#Cc1cc(NC(CCO)C2CCOCC2)nc2ccc(Cl)cc12` (stereo not shown) [Example 33], the pIC50 is 4.82 to 5.30.

Consider `N#Cc1cc(N2CCC[C@H](C(=O)N3CCOCC3)C2)nc2ccc(Br)cc12` [Example 101], for which the pIC50 is above 5.30.

Turning to `Cn1ccnc1C1CCCN(c2cc(C#N)c3cc(Br)ccc3n2)C1` (stereo not shown) [Example 151], the pIC50 was above 5.30. Same read-out and setting: for `Cc1cnc(CNc2cc(C#N)c3cc(Cl)ccc3n2)o1` [Example 28] the value was below 4.52; for `N#Cc1cc(N2CCC(NS(N)(=O)=O)CC2)nc2ccc(Br)cc12` [Example 132], above 5.30; for `CC(C)(C)OC(=O)NC1CCN(c2cc(C#N)c3cc(C4CCOC4)ccc3n2)CC1` (stereo not shown) [Example 94], above 5.30.

Regarding `N#Cc1cc(N2CCC[C@H](C(=O)N3CCCC3)C2)nc2ccc(Br)cc12` [Example 100], the negative logarithm of the IC50 (pIC50) was above 5.30. Regarding `N#Cc1cc(N2CCC(N)CC2)nc2ccc(F)cc12` [Example 23], the pIC50 is below 4.52. Turning to `N#Cc1cc(NCc2ccccn2)nc2ccc(Cl)cc12` [Example 42], the pIC50 was above 5.30. The same measure, in the same setting: in the case of `C[C@@H]1CCCN(c2cc(C#N)c3cc(Cl)ccc3n2)C1` [Example 62] it was above 5.30; in that of `OCCNC1CCN(c2ccc3cc(Cl)ccc3n2)CC1` [Example 2], below 4.52; in that of `N#Cc1cc(N2CCCC[C@H]2CO)nc2ccc(Cl)cc12` [Example 95], above 5.30.

Regarding `N#Cc1cc(N2CCC(C(N)=O)CC2)nc2ccc(Cl)cc12` [Example 56], the negative logarithm of the IC50 (pIC50) is 4.82 to 5.30.

Source of the values: patent US12441719B2, “Inhibitors of SARM1” (Disarm Therapeutics, Inc., priority 2019, dated 2025).
